# Experimental data from article PMC7377239, “Cardiovascular Effects of Polychlorinated Biphenyls and Their Major Metabolites” (Environmental Health Perspectives, 2020).
# Counter-ions that a name gives are not always drawn. Like-named read-outs stand apart in the source and are kept apart here.
# How the values were obtained:
# HUVECs = test: High-content imaging cytotoxicity in HUVECs, 24 h; format: cell-based, human; details: Homo sapiens, HUVEC, 24 h, HUVEC, 24 hr
# Method in brief: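 Point-of-departure values come from four-parameter logistic fits of vehicle-normalized (0.5% DMSO) imaging readouts, cutoff one SD of vehicle means, 100μM where no concentration–response. Cells: HUVEC monolayers, passages 1–5, treated 24 h at 37°C, 5% CO2, then Hoechst 33342/MitoTracker Orange/calcein AM stained, imaged at 10×.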
# [1] = tested on: iCell cardiomyocytes (human iPSC-derived cardiomyocytes); test: High-content imaging of cytotoxicity and mitochondrial integrity in iPSC-CMs; format: cell-based; details: Homo sapiens, Cardiomyocyte, cardiomyocytes (cm)
# Method in brief: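 This assay measured cytotoxicity and mitochondrial integrity in iPSC cardiomyocytes held in 40μL maintenance medium. After compound exposure, a 2× staining solution with Hoechst 33342 (4μg/mL) and MitoTracker™ Orange (0.4μM) was applied for 15 min at 37°C. Cells were washed, fixed with 3.7% formaldehyde, imaged on DAPI and Cy3 channels, and scored in MetaXpress®.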
structure (smiles),measurement,setting,value
O=S(=O)(O)Oc1cc(Cl)c(-c2cc(Cl)ccc2Cl)cc1Cl [4-PCB 52 sulfate],minimal effective concentration,"HUVECs; cyto, read-out: POD huvec.cyto.24hr",5.38 µM
same,minimal effective concentration,"HUVECs; mito, read-out: POD huvec.mito.24hr",3.31 µM
same,minimal effective concentration,"HUVECs; mitoint, read-out: POD huvec.mitoint.24hr",61.2 µM
same,minimal effective concentration,"HUVECs; nma, read-out: POD huvec.nma.24hr",33.9 µM
same,minimal effective concentration,"HUVECs; tc, read-out: POD huvec.tc.24hr",5.38 µM
same,minimal effective concentration,"[1]; 1.5 h, cam, 90 min, read-out: POD cm.cam.90min",10.8 µM
same,minimal effective concentration,"[1]; 1.5 h, mii, 90 min, read-out: POD cm.mii.90min",41.2 µM
same,minimal effective concentration,"[1]; 1.5 h, mito, 90 min, read-out: POD cm.mito.90min",10.6 µM
same,minimal effective concentration,"[1]; 1.5 h, tc, 90 min, read-out: POD cm.tc.90min",10.8 µM
same,minimal effective concentration,"[1]; 24 h, cam, 24 hrs, read-out: POD cm.cam.24hrs",8.2 µM
same,minimal effective concentration,"[1]; 24 h, mii, 24 hrs, read-out: POD cm.mii.24hrs",44.6 µM
same,minimal effective concentration,"[1]; 24 h, mito, 24 hrs, read-out: POD cm.mito.24hrs",8.28 µM
same,minimal effective concentration,"[1]; 24 h, tc, 24 hrs, read-out: POD cm.tc.24hrs",8.44 µM
